Columns and labels:
[1] = test system: KRAS G12D mutant-positive pancreatic cancer line AsPC-1; test: Non-anchorage-dependent cell growth inhibitory activity in AsPC-1 (spheroid 3D culture); type: cell-based; details: Homo sapiens, ASPC1, 144 h, read-out: IC50, non-anchorage-dependent cell growth inhibition
Experimental: The non-anchorage-dependent cell growth inhibitory activities of subject compounds were evaluated by spheroid 3D cell culture.
AsPC-1 cells were seeded at 36 μL/well on a low-cell-adhesive round bottom 384-well plate (Prime Surface: from Sumitomo Bakelite) to give 5×10^2 cells per well. The cell culture was performed under the same conditions as in the Test Example 2.
The next day, the subject compounds (6 points having final concentrations in the range of 10 μM to 3.0 nM) and DMSO, which was the solvent for the subject compounds, as a negative control were diluted 100-fold with a fresh medium and were each added at 4 μL per well. After culturing in the presence of 5% CO2 at 37° C. for six days, CellTiter Glo 2.0 (from Promega) was added at 20 μL per well. After stirring with a plate mixer (from FINEPCR) at normal temperature for an hour, the luminescent signals were measured with ARVO X3 (from PerkinElmer).
With the signaling value in treatment with DMSO taken as 0% inhibition and with the signaling value in the medium alone without cells taken as 100% inhibition, the 50% inhibition values (IC50) were calculated by Sigmoid-Emax model nonlinear regression analysis.

[2] = target: KRAS G12D/SOS/c-Raf complex (Homo sapiens (Human), UniProt P01116, G12D); test: KRAS G12D/SOS/c-Raf complex formation inhibitory activity (TR-FRET); type: biochemical; details: human recombinant proteins, 1 hour at room temperature, read-out: IC50, KRAS G12D/SOS/c-Raf complex formation inhibition
Experimental: Using human recombinant KRAS G12D, SOS and c-Raf proteins, the inhibitory activity of subject compounds on the complex formation of the proteins was examined by a time-resolved fluorescence resonance energy transfer (TR-FRET) method.
Biotinylated AviTag-KRAS G12D (amino acid region of 1-185, GDP) (2.5 μL; 400 nM) and subject compounds dissolved in an assay buffer (50 mM HEPES, 150 mM NaCl, 5 mM MgCl2, 0.05% Tween 20, pH 7.0) were added to a 384-well plate (from Corning) in a liquid volume of 2.5 μL at 40,000 nM to 40 nM. Son of Sevenless (SOS) (amino acid region of 564-1049, 2.5 μL; 1.3 μM) and c-Raf (amino acid region of 51-131) GST (2.5 μL; 130 nM) containing GTP (from Sigma-Aldrich; 2 μM) were added to the plate, and the plate was allowed to stand for 1 hour at room temperature. Then, a mixture liquid (10 μL) of LANCE Ulight-anti-GST (from PerkinElmer; 120 nM) and LANCE Eu-W1024 labeled Streptoavidin (from PerkinElmer; 100 ng/mL) was added, and the 620-nm and 665-nm fluorescence intensities were measured using EnVision 2104 (from PerkinElmer) under the conditions of an excitation wavelength of 337 nm. After standardizing the values with the fluorescence intensity at a reference wavelength of 620 nm, the 50% inhibitory concentrations (IC50) were calculated by Sigmoid-Emax model nonlinear regression analysis with the signaling value in treatment with the solvent taken as 0% inhibition and with the signaling value without the addition of GTP taken as 100% inhibition.

[3] = test system: ERK phosphorylation (Thr202/Tyr204) in KRAS G12D mutant-positive pancreatic cancer line AsPC-1; test: ERK phosphorylation inhibitory activity in AsPC-1 (cell ELISA); type: cell-based; details: Homo sapiens, ASPC1, 2 h, read-out: IC50, ERK phosphorylation inhibition
Experimental: The ERK phosphorylation inhibitory activities of subject compounds were evaluated by measuring phosphorylation of the 202th threonine (Thr202) and the 204th tyrosine (Tyr204) of ERK located downstream of the KRAS signal by cell ELISA.
AsPC-1 cells (ATCC, CRL-1682) were seeded at 36 μL/well on a 384-well plate (from Greiner bio-one) to give 2.0×10^4 cells per well. As for the cell culture conditions, RPMI-1640 medium (from Sigma-Aldrich) containing 10% fetal bovine serum (from GE Life Sciences) was used in the presence of 5% CO2 at 37° C.
The next day, the subject compounds (6 points having final concentrations in the range of 10 μM to 0.3 nM), trametinib (MEK inhibitor) of a final concentration of 1 μM as a positive control and DMSO, which was the solvent for the subject compounds, as a negative control were diluted 100-fold with a fresh medium and were each added at 4 μL per well, followed by culturing for 2 hours. After culturing, a 30% glyoxal solution (40% glyoxal [from Wako] was diluted with Phosphate Buffered Saline [PBS; from Wako) was quickly added at 30 μL per well, and the plate was allowed to stand for an hour at room temperature to thus immobilize the cells. Then, the plate was centrifuged (110× g, seven seconds, hereinafter centrifugation was performed under the same conditions unless otherwise specified) to remove the supernatant, and 0.1% Triton X-100 (from Amersham Biosciences)—containing PBS was added at 20 μL per well. After allowing the plate to stand for 10 minutes at room temperature, the supernatant was removed by centrifugation, and the same operation was further repeated. Next, 0.5% sodium dodecyl sulfate (SDS; from Invitrogen)-containing PBS was added at 20 μL per well. The plate was allowed to stand at room temperature for 30 minutes and was then centrifuged to remove the supernatant. Subsequently, a blocking solution (Intercept Blocking Buffer; from LI-COR Biosciences) was added at 20 μL per well, and the plate was allowed to stand for an hour at room temperature. The supernatant was removed by centrifugation, and an ERK (Thr202/Tyr204) phosphorylation antibody (Phospho-p44/42 MAPK (Erk 1/2) (Thr202/Tyr204) (D13.14.4E) XP Rabbit mAb; from Cell Signaling Technology) diluted 2,500-fold with the blocking solution was added at 10 μL per well as a primary antibody. The plate was allowed to stand at 4° C. overnight.
The next day, the plate was centrifuged to remove the supernatant, and 0.05% Tween-20-containing PBS (from Thermo Scientific; 20× PBS Tween-20 was diluted 20-fold with ion exchange water and used) was added at 20 μL per well. The supernatant was removed by centrifugation to thus wash each well. The washing was performed three times in total. After washing, an IRDye 800CW Goat anti-Rabbit IgG (from LI-COR Biosciences) diluted 1,000-fold with the blocking solution was added at 10 μL per well as a secondary antibody, and the plate was allowed to stand for an hour at room temperature. The plate was centrifuged to remove the supernatant, and each well was washed three times with 0.05% Tween-20-containing PBS in the same manner as after the primary antibody reaction. Centrifugation after the third washing was performed at 171×g for 17 seconds. After removing the supernatant, the plate was dried as it was with air at room temperature for three hours or more, and the 800-nm fluorescent signals were measured with Aerius (from LI-COR Biosciences).
With the signaling value at the time of addition of DMSO taken as 0% inhibition and with the signaling value at the time of addition of […] trametinib taken as 100% inhibition, the 50% inhibition values (IC50) were calculated by Sigmoid-Emax model nonlinear regression analysis.

KRAS G12D/SOS/c-Raf complex, sequence (P01116 other isoform, or with tags, fused parts or gaps G12D): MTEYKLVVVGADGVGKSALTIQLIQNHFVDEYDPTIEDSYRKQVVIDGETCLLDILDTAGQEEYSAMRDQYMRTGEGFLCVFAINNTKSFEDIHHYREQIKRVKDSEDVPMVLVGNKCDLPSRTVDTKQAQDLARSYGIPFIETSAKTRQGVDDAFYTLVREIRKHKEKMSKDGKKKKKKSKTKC

| Structure (SMILES) | IC50 [1] [nM] | IC50 [2] [nM] | IC50 [3] [nM] |
| --- | --- | --- | --- |
| Cc1c(F)cc2[nH]ncc2c1-c1c(C2CC2)cc2c(N3C[C@@H]4C[C@H]3CN4)nc(OC3CCOCC3)nc2c1OCc1ccc(Cc2ncn(C3CC3)n2)cc1 [Example 14, 6-cyclopropyl-8-({4-[(1-cyclopropyl-1H-1,2,4-triazol-3-yl)methyl]phenyl}methoxy)-4-[(1 S,4S)-2,5-diazabicyclo[2.2.1]heptan-2-yl]-7-(6-fluoro-5-methyl-1H-indazol-4-yl)-2-[(oxan-4-yl)oxy]quinazoline] | 154 | 143 | 42 |
| Cc1c(F)cc2[nH]ncc2c1-c1c(C2CC2)cc2c(N3C[C@@H]4C[C@H]3CN4)nc(OC3CCOCC3)nc2c1OCc1ccc(Cc2nnn(C)n2)cc1 [Example 16, 6-cyclopropyl-4-[(1S,4S)-2,5-diazabicyclo[2.2.1]heptan-2-yl]-7-(6-fluoro-5-methyl-1H-indazol-4-yl)-8-({4-[(2-methyl-2H-tetrazol-5-yl)methyl]phenyl}methoxy)-2-[(oxan-4-yl)oxy]quinazoline] | 216 | 226 | 93 |

Reference: patent US20240150366A1, “4-AMINOQUINAZOLINE COMPOUND” (Astellas Pharma Inc., priority 2021, published 2024)
